Source: patent US7745493B2, “Methods of treating tardive dyskinesia and other movement disorders” (priority 1998, dated 2010)

What was measured:
[1] = tested on: person two with long-standing TD; experiment: Choice Reaction Time (Case 1); type: in vivo, human; conditions: lower score better
Description: (§1) The tests showing such results included Simple Reaction Time, the Trail Making Test (both parts) and the Paced Auditory Serial Addition Test (PASAT). Choice reaction time, a test requiring both basic attention and concentration on a specific task that must be kept in mind, was slightly better on acamprosate, consistent with the hypothesis that general cognitive function, as opposed to simple attention, improves with acamprosate treatment.
(§2) The following tables report on the results of the neuropsychological tests (Drug I is memantine and Drug II is acamprosate): […]

[2] = tested on: person two with long-standing TD; experiment: Paced Auditory Serial Addition Test (PASAT) (Case 1); type: in vivo, human; conditions: lower score better
Description: as §1, §2

[3] = tested on: person two with long-standing TD; experiment: Trail Making Test, Trails A (Case 1); type: in vivo, human; conditions: lower score better
Description: as §1, §2

[4] = tested on: person two with long-standing TD; experiment: Motor Functions: Grooved Functions (Case 1); type: in vivo, human; conditions: ON drug, lower score better; for Grooved Functions sec. DH: DH = right
Description: as §2

[5] = tested on: person two with long-standing TD; experiment: Trail Making Test, Trails B (Case 1); type: in vivo, human; conditions: ON drug; for Trails B Seconds: lower score better
Description: as §1, §2

[6] = tested on: person one with long-standing TD; experiment: Case Report 2: clinical observation of TD; type: in vivo, human; conditions: Case 2; for effect on involuntary movements of TD: acamprosate 666 mg three times daily added to memantine, magnesium oxide 250 mg three times a day added to acamprosate; for cognitive symptoms / memory: subjective
Description: person one had long-standing TD following decades of treatment with the neuroleptic drug perphenazine. Their involuntary movements comprised bilateral chorea of the upper extremities, plus writhing of the tongue and tongue-biting. Both of the latter movements led to a very sore tongue. In addition, the patient experienced impairment of their short-term memory, which was attributed primarily to cerebrovascular disease.
They also continued to have a sore tongue. […] In addition to memantine, the patient regularly took antiepileptic drugs (gabapentin and lamotrigine), antiplatelet agents (aspirin and ticlopidine), as well as medications for hypertension, glaucoma and gastrointestinal symptoms (isosorbide mononitrate, metoprolol, timolol eye drops and olsalazine).
The patient was placed on a treatment regime that included administration of 666 mg of acamprosate, three times daily. In this case, acamprosate was added to the patient's regimen, which continued to include memantine. […] Despite past evidence from formal testing that the patient had impaired short-term memory, they performed normally on a two-sentence memory task, which involved testing the patient's recall ability using two sentences containing 13 separate details. On the two-sentence memory task, within three attempts the patient was able to recall 9 details and, using a multiple choice format, was able to recall a total of 11 details. Recall of 9 details on the third attempt would be normal for a middle-aged adult, let alone one […].
After a full year on memantine and acamprosate, the memantine was discontinued, with little change in the patient's symptoms.
Magnesium oxide, 250 mg three times a day, was added, each dose being taken together with the acamprosate. […] The effect was definite: movements worsened when magnesium oxide was stopped and improved when it was restarted. After a month on magnesium, the dosage of acamprosate was increased to 666 mg four times a day, with 250 mg of magnesium oxide given together with each dose. […] The only residual sign of TD was a mild degree of involuntary movement of the hands.

[7] = tested on: person two with Parkinson's disease and peak-dose dyskinesia; experiment: Case Report 3: peak-dose dyskinesia of treated Parkinson's disease; type: in vivo, human; conditions: Case 3; for effect on peak-dose dyskinesia: added to antiparkinson regime, memantine 10 mg three times a day, acamprosate 666 mg three times, then 333 mg four times a day, baclofen 30 and 60 mg daily, magnesium 300 mg three times a day
Procedure: The patient's Parkinson's disease was treated using levodopa/carbidopa and bromocriptine.
Prior to beginning treatment with acamprosate, the patient was on an antiparkinson treatment regime that consisted of 1 mg of pergolide three times a day, 5 mg of selegiline twice a day, and a combination of levodopa/carbidopa consisting of 550-600 mg of levodopa and 125-150 mg of carbidopa administered in divided doses.
The patient began acamprosate as an addition to the antiparkinson regime described above. Initially, the patient received 666 mg of acamprosate administered three times a day. Two weeks later the regime was adjusted such that the patient received 333 mg of acamprosate four times a day, taking one 333 mg pill with each daytime dose of 100 mg levodopa and 25 mg carbidopa. The patient's bedtime does of controlled-release levodopa-carbidopa (200 mg of levodopa and 50 mg of carbidopa) was continued, but were given without acamprosate. […] To confirm that the patient's improvement was due to the administration of acamprosate, the patient was taken off the acamprosate. […] During the period off acamprosate, an attempt was made to replace acamprosate with baclofen (a GABA-receptor agonist) at a total daily dose of 30 mg, and then with baclofen at a total daily dose of 60 mg.
Several months later, magnesium (300 mg elemental magnesium, as a mixed chelate), was added to the regimen. It was taken three times a day, together with a one of the patient's regular doses of levodopa/carbidopa. […] To establish whether the improvement was due to magnesium, the magnesium was stopped after several weeks.

[8] = tested on: person with extremely severe tardive dyskinesia and dystonia; experiment: Case Report 4: clinical course and physician examination; type: in vivo, human; conditions: Case 4
[9] = tested on: person two with chronic schizophrenia and severe tardive dyskinesia; experiment: Case Report 6: clinical observation of severe TD with blepharospasm in chronic schizophrenia; type: in vivo; conditions: Case 6
Description: A corresponding physician the United Kingdom recently reported to me on the treatment of a person with chronic schizophrenia and severe tardive dyskinesia. As in Case 1, the patient's involuntary movements included severe blepharospasm. In addition, they had involuntary rhythmic peri-oral movements, and chorea-like movements of both hands, like the patient in Case 2. They had no cognitive complaints, nor were cognitive abnormalities noted on routine psychiatric examination.
The patient had developed symptoms of paranoid schizophrenia in 1991. The symptoms of psychosis included auditory hallucinations, bizarre delusions, and persecutory fears. […] They were subsequently hospitalized and stabilized on fluphenthixol decanoate, a depot neuroleptic given by intramuscular injections. Symptoms of TD developed in November, 1994, after 28 months of neuroleptic therapy. […] Beginning in October 1997 the patient was treated for their schizophrenia with 2 mg of risperidone alone. On this modest dose of an atypical neuroleptic, they had severe symptoms of TD for which they eagerly sought treatment.
Memantine was started on November 28, 1997 at a dose of 5 mg per day, increased after 7 days to 5 mg twice a day, and after another 7 days to 5 mg three times a day. […] Further dosage increases were attempted to completely abolish the involuntary movements. The maximum dose attainable without side effects was 10 mg twice a day; above that level the patient had complaints of dizziness. That dose of memantine was maintained through May of […].
In May 1998 the patient was started on acamprosate, in pursuit of complete elimination of their involuntary movements. Initially, acamprosate 333 mg three times a day was added to memantine 10 mg twice a day.

SMILES: CC(=O)NCCCS(=O)(=O)O [acamprosate, calcium N-acetylhomotaurinate]
- Choice Reaction Time 500 Green ([1]; ON drug): 382 ms
- Choice Reaction Time 500 Red ([1]; ON drug): 426 ms
- Choice Reaction Time 1500 Green ([1]; ON drug): 408 ms
- Choice Reaction Time 1500 Red ([1]; ON drug): 379 ms
- PASAT 1.2 sec ISI errors ([2]; ON drug): 13/49
- PASAT 1.6 sec ISI errors ([2]; ON drug): 11/49
- PASAT 2.0 sec ISI errors ([2]; ON drug): 1/49
- PASAT 2.4 sec ISI errors ([2]; ON drug): 4/49
- Trails A Errors ([3]; ON drug): 0
- Trails A Seconds ([3]; ON drug): 20″
- Grooved Functions sec. DH [4]: DH = 61″
- Grooved Functions sec. NDH [4]: NDH = 70″
- Trails B Errors [5]: 0
- Trails B Seconds [5]: 43″
- persistent symptoms on acamprosate after memantine discontinued ([6]; 666 mg three times a day): mild choreatic movements on the hands, mild involuntary movements of the tongue and jaw
- effect on involuntary movements of TD [6]: chorea and tongue-biting stopped completely
- cognitive symptoms / memory [6]: memory improved
- effect on levodopa/carbidopa treatment of hypokinesia and rigidity [7]: no decrease in the efficacy
- periods without dyskinesia following each dose [7]: up to two hours
- time to return of dyskinetic movements after stopping [7]: Within one day
- effect on peak-dose dyskinesia [7]: reduced from moderate to mild intensity
- time after resuming drug until previous level of benefit regained [8]: 72 h
- time off drug until movement disorder returned to baseline [8]: 24 h
- peri-oral movements ([9]; 333 mg three times a day added to memantine 10 mg twice a day): peri-oral movements were eliminated
- involuntary movements on acamprosate alone ([9]; after memantine discontinued): continued free of involuntary movements

SMILES: CC12CC3CC(C)(C1)CC(N)(C3)C2 [memantine]
- Choice Reaction Time 500 Green [1]: 362 ms
- Choice Reaction Time 500 Red [1]: 421 ms
- Choice Reaction Time 1500 Green [1]: 365 ms
- Choice Reaction Time 1500 Red [1]: 422 ms
- PASAT 1.2 sec ISI errors [2]: 28/49
- PASAT 1.6 sec ISI errors [2]: 21/49
- PASAT 2.0 sec ISI errors [2]: 17/49
- PASAT 2.4 sec ISI errors [2]: 13/49
- Trails A Errors [3]: 0
- Trails A Seconds [3]: 28″
- Grooved Functions sec. DH [4]: DH = 71″
- Grooved Functions sec. NDH [4]: NDH = 70″
- Trails B Errors [5]: 0
- Trails B Seconds [5]: 118″
- effect on involuntary movements of TD [6]: improved, but continued at a mild-to-moderate level
- cognitive symptoms / memory [6]: did not improve
- effect on peak-dose dyskinesia [7]: reduced their dyskinetic movements from severe to mild-to-moderate
- effect on movement disorder ([8]; memantine 10 mg three times a day added to acamprosate and magnesium sulfate): aggravated their movement disorder
- maximum dose attainable without side effects [9]: 10 mg twice a day
- involuntary movements ([9]; 5 mg three times a day): virtually no involuntary movements noted at the peak of a given dose
- blepharospasm after first two weeks ([9]; 5 mg twice a day): marked improvement in blepharospasm
- involuntary movements after 6 months of treatment ([9]; 10 mg twice a day): no blepharospasm or limb chorea, and only mild peri-oral movements
- complaints above maximum tolerated dose ([9]; above 10 mg twice a day): dizziness
